Like-named read-outs stand apart in the source and are kept apart here.
How the values were obtained:
[1] = target: T1, AchE (from Electrophorus electricus) (Electrophorus electricus, UniProt O42275); assay: biochemical
T1 construct: purchased Sigma-Aldrich (Milan, Italy)
Experimental: The acetylcholinesterase (AchE) inhibitory activity was evaluated using a method described by Balkrishna et al. with slight modification (for details, see the Supporting Materials). […]
[…] IC50 values were calculated through a linear regression and expressed as means ± SD (standard deviation). They were considered statistically significant with values of p < 0.05.
Acetylcholinesterase inhibition assay
The assay mechanism forecasts that the AchE enzyme hydrolyses the substrate acetylthiocholine, resulting in the product “thiocholine” which reacts with Ellman’s reagent (5,5’-dithio-bis-(2-nitrobenzoic acid), DTNB) to produce 2-nitrobenzoate-5-mercaptothiocholine and 5-thio-2-nitrobenzoate (TNB); the latter can be detected at 415 nm. 150 µL of phosphate buffer (0.1 M), 20 microliters of the sample (final concentrations of 100, 200, […]
300 µM) and 20 µL of 0.2 U/mL AchE (from Electrophorus electricus) were treated in 96-well plates and […]

mushroom tyrosinase [2] = assay: Tyrosinase inhibition assay (spectrophotometric, L-tyrosine, dopachrome at 495 nm); assay type: biochemical, Agaricus bisporus; conditions: mushroom tyrosinase 100 U/mL, 1 mM L-tyrosine, 37 °C; mean of three experiments; read-out: Tyrosinase inhibitory activity IC50±SD
Experimental: The tyrosinase inhibitory activity was evaluated using a method previously described with slight modification (for details, see the Supporting Materials). […]
Tyrosinase inhibition assay
30 microliters of the sample (final concentrations of 50, 100, 200 µM) and 50 µL of 100 U/mL mushroom tyrosinase were treated in 96-well plates and incubated at 37 ◦C for 15 min. Subsequently, 50 µL of 1 mM L-tyrosine was added and then reacted at 37 ◦C for 15 min. The amount of dopachrome formed was measured at 495 nm using Thermo Scientific™ Multiskan SkyHig h Microplate Spectrophotometer. Each sample has been tested in triplicate and the tyrosinase inhibitory activity was calculated using the following equation:
Tyrosinase inhibitory activity (I%) = [1 − (S − S0)/ (C − C0)] × 100 where S is the absorbance of the sample, tyrosinase, and L-tyrosine; S0 is the absorbance of the sample and L-tyrosine; C is the absorbance of tyrosinase and L-tyrosine, and C0 is the absorbance of L-tyrosine (negative […]
control). […] IC50 values were calculated through a linear regression and expressed as means ± SD (standard deviation). They were considered statistically significant with values of p < 0.05. […]

mushroom tyrosinase [3] = assay: Tyrosinase inhibition kinetics study (Lineweaver-Burk plot); assay type: biochemical, Agaricus bisporus
Experimental: Kinetic analysis of the tyrosinase enzyme for compound 13 was carried out using the Lineweaver–Burk double reciprocal plot. […] At 37 °C, the enzyme inhibition reaction was recorded by measuring the absorbance of the microplate reader at 495 nm for 0, 3, 6, 9, 12, and 15 min.

[4] = 0.2 U/mL AchE, acetylthiocholine, 37 °C, mean of three experiments, read-out: AchE inhibitory activity IC50±SD

T1 sequence (O42275 24-633): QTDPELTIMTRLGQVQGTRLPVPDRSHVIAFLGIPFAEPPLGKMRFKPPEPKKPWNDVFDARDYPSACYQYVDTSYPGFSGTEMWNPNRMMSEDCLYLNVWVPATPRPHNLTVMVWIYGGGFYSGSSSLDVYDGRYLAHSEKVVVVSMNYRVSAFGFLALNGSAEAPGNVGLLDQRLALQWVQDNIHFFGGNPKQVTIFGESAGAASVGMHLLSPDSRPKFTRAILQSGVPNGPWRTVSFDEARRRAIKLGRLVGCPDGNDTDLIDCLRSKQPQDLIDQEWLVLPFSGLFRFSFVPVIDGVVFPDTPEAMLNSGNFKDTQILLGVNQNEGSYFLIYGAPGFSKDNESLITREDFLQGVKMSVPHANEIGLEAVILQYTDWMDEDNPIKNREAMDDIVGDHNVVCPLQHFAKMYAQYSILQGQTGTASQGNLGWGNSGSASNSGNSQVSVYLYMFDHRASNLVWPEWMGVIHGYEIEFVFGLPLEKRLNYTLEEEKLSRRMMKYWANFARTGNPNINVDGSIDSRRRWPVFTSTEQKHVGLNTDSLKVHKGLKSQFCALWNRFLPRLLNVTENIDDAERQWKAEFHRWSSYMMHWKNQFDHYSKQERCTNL

Compound	IC50 (mushroom tyrosinase [2]) [µM]	IC50 [1, 4] [µM]	also measured
O=c1cc(-c2ccc(O)cc2)oc2cc(O)cc(O)c12 [Compound 9, Apigenin]			IC50 [1]: 362 ± 10.1 µM
C=C1C(=O)O[C@@H]2/C=C(/C)[C@@H](O)C/C=C(\C)C[C@H](OC(=O)/C(C)=C\C)[C@@H]12 [Compound 14, Nobilin]	297 ± 7.23		IC50 ([1]; read-out: AchE inhibitory activity IC50±SD): 304 µM
C=C1CC(OC(=O)C(C)=CC)C2C(C=C(C)C(O)CC1O)OC(=O)C2C (stereo not shown) [Compound 13, 11,13-Dihydro-8-tigloylhydroxyisonobilin]	146	245 ± 9.16	Type of tyrosinase inhibition (mushroom tyrosinase [3]; Lineweaver-Burk double reciprocal plot): uncompetitive; Vmax in the presence of the inhibitor (mushroom tyrosinase [3]; inhibitor 53.52 µg/mL, L-tyrosine 1-0.125 mM, control Vmax 42.02 µM/min): 27.25 µM/min
OC[C@H]1O[C@@H](OCCc2ccccc2)[C@H](O)[C@@H](O)[C@@H]1O [Compound 3, Phenylethyl ꞵ-D-glucopyranoside]	196 ± 7.01	281 ± 10.1	
COc1ccc(-c2cc(=O)c3c(O)c(OC)c(O)cc3o2)cc1 [Compound 15, 5,7-Dihydroxy-6-methoxy-2-(4-methoxyphenyl)-4H-1-benzopyran-4-one]	212 ± 6.76	190	
C=C1C[C@H](OC(=O)/C(C)=C\C)[C@H]2C(=C)C(=O)O[C@@H]2/C=C(/C)[C@@H](O)CC1=O [Compound 12, Nobilinon A]	314 ± 8.09	244 ± 9.11	
O=C(O)C[C@@H]1CCC(=O)[C@@H]1C/C=C\CCO[C@@H]1O[C@H](CO)[C@@H](O)[C@H](O)[C@H]1O [Compound 2, Tuberonic acid glucoside]	192 ± 7.92	343 ± 10	
CCC(C)O[C@@H]1O[C@H](CO)[C@@H](O)[C@H](O)[C@H]1O (stereo partly drawn) [Compound 4, 1-Methylpropyl ꞵ-D-glucopyranoside]	412 ± 8.12	352 ± 9.03	
C=C1C(=O)O[C@@H]2/C=C(/C)[C@@H](O)C[C@@H](O)C(=C)C[C@H](OC(=O)/C(C)=C\C)[C@@H]12 [Compound 10, Hydroxyisonobilin]	188 ± 6.63	268 ± 12.1	
ꞵ-D-Glucopyranose, 1-[(2 Z)-2 methyl-2-butenoate] [Compound 5]	299 ± 7.86	388 ± 11.1	
C=C1C(=O)O[C@@H]2/C=C(/C)[C@@H](O)C[C@@H](O)C(=C)C[C@H](OC(=O)/C(C)=C/C)[C@@H]12 [Compound 8, 8-Tigloylhydroxyisonobilin]	184 ± 7.12	225	
COc1cc2ccc(=O)oc2cc1O[C@@H]1O[C@H](CO)[C@@H](O)[C@H](O)[C@H]1O [Compound 1, Scopolin]	46.8 ± 6.34	231	
C=C1C(=O)O[C@@H]2/C=C(/C)[C@H](O)C[C@@H](O)C(=C)C[C@H](OC(=O)/C(C)=C\C)[C@@H]12 [Compound 11, 3-Epi-hydroxyisonobilin]	286 ± 8.28	263 ± 11.2	
C[C@@H]1O[C@@H](OC[C@H]2O[C@@H](Oc3cc(O)c4c(=O)cc(-c5ccc(O)cc5)oc4c3)[C@H](O)[C@@H](O)[C@@H]2O)[C@H](O)[C@H](O)[C@H]1O [Compound 6, Apigenin 7-O-rutinoside]	32.1	182	
COc1ccc(-c2oc3cc(O[C@@H]4O[C@H](CO)[C@@H](O)[C@H](O)[C@H]4O)c(OC)c(O)c3c(=O)c2O)cc1 [Compound 7, Camaraside]	87.4 ± 5.67	232 ± 9.98	
